Data reported in ChEMBL document CHEMBL5154740, “Novel Aurora A and Protein Kinase C (α, β1, β2, and θ) Multitarget Inhibitors: Impact of Selenium Atoms on the Potency and Selectivity” (J Med Chem, 2022).
pIC50: −log10 of the molar value.

Tests used:
[1] = biological target: T1, Protein kinase C epsilon type (Homo sapiens) (UniProt Q02156); experiment: Inhibition of PKCepsilon (unknown origin) at 50 nM by Z'LYTE screening method relative to control
T1 sequence (whole entry): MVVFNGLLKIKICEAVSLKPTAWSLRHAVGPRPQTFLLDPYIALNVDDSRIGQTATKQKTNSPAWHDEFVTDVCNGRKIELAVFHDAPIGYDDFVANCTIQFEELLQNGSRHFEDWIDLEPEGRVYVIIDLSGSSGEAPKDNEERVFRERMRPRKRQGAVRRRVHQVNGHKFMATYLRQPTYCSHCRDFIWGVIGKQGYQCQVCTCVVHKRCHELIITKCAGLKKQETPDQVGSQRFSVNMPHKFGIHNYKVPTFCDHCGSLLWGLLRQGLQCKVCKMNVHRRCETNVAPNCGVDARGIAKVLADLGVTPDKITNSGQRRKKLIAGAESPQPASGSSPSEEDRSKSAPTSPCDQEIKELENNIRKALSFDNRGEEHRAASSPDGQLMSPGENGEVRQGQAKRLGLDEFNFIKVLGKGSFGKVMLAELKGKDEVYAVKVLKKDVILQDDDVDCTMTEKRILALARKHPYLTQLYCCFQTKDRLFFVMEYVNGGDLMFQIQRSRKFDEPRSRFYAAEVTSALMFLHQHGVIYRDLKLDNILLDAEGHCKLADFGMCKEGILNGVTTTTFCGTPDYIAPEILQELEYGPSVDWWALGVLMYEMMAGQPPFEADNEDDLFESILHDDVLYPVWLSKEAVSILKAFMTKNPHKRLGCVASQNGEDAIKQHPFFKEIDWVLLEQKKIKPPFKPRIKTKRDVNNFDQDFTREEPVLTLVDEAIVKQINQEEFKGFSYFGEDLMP

[2] = biological target: Proto-oncogene tyrosine-protein kinase receptor Ret (Homo sapiens) (UniProt P07949); experiment: Inhibition of RET (unknown origin) at 50 nM by Z'LYTE screening method relative to control
Sequence of Proto-oncogene tyrosine-protein kinase receptor Ret (Homo sapiens) (P07949 whole entry): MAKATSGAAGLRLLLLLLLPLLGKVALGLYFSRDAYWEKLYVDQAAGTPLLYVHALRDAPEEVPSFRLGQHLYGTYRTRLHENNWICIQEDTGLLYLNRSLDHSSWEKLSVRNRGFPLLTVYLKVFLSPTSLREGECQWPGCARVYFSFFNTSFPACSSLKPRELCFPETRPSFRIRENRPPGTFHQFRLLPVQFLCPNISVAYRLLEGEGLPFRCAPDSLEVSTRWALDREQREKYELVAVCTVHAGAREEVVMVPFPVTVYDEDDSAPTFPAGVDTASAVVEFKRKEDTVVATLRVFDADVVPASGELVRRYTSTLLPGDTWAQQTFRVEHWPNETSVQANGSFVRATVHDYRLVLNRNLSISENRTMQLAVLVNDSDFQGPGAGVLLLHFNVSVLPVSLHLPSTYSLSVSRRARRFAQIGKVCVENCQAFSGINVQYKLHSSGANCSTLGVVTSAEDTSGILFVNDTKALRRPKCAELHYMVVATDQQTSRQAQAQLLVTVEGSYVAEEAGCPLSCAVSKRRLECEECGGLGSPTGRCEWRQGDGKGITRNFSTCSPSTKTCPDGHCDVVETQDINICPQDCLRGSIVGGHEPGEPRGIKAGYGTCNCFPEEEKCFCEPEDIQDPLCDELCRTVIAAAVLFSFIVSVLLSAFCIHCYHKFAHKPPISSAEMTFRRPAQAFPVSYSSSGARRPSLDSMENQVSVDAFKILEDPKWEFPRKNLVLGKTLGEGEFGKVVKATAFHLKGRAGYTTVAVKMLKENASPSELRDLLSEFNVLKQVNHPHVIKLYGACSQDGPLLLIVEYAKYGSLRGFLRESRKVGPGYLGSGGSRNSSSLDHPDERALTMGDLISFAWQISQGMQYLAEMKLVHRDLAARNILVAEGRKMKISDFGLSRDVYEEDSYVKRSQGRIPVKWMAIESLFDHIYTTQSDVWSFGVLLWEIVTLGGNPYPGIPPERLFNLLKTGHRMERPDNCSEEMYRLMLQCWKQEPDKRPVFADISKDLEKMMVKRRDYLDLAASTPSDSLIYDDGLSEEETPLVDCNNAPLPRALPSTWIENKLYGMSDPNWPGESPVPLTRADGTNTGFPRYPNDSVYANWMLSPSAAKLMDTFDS

[3] = biological target: Mitogen-activated protein kinase 1 (Homo sapiens) (UniProt P28482); experiment: Inhibition of MAPK1 (unknown origin) at 50 nM by Z'LYTE screening method relative to control
Sequence of Mitogen-activated protein kinase 1 (Homo sapiens) (P28482 whole entry): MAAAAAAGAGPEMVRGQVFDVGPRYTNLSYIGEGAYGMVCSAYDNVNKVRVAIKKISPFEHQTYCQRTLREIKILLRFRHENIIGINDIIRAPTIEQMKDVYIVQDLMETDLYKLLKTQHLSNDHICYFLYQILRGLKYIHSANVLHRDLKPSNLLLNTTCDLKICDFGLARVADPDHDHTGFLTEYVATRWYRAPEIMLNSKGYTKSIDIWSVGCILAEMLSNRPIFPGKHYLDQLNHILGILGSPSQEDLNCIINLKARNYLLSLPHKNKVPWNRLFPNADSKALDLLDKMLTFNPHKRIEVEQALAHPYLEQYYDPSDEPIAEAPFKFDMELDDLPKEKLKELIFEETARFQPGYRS

Homo sapiens = species: Homo sapiens; experiment: Inhibition of CDK1/Cyclin B (unknown origin) at 50 nM by Z'LYTE screening method relative to control
[4] = biological target: Receptor tyrosine-protein kinase erbB-2 (Homo sapiens) (UniProt P04626); experiment: Inhibition of ERBB2 (unknown origin) at 50 nM by Z'LYTE screening method relative to control
Sequence of Receptor tyrosine-protein kinase erbB-2 (Homo sapiens) (P04626 whole entry): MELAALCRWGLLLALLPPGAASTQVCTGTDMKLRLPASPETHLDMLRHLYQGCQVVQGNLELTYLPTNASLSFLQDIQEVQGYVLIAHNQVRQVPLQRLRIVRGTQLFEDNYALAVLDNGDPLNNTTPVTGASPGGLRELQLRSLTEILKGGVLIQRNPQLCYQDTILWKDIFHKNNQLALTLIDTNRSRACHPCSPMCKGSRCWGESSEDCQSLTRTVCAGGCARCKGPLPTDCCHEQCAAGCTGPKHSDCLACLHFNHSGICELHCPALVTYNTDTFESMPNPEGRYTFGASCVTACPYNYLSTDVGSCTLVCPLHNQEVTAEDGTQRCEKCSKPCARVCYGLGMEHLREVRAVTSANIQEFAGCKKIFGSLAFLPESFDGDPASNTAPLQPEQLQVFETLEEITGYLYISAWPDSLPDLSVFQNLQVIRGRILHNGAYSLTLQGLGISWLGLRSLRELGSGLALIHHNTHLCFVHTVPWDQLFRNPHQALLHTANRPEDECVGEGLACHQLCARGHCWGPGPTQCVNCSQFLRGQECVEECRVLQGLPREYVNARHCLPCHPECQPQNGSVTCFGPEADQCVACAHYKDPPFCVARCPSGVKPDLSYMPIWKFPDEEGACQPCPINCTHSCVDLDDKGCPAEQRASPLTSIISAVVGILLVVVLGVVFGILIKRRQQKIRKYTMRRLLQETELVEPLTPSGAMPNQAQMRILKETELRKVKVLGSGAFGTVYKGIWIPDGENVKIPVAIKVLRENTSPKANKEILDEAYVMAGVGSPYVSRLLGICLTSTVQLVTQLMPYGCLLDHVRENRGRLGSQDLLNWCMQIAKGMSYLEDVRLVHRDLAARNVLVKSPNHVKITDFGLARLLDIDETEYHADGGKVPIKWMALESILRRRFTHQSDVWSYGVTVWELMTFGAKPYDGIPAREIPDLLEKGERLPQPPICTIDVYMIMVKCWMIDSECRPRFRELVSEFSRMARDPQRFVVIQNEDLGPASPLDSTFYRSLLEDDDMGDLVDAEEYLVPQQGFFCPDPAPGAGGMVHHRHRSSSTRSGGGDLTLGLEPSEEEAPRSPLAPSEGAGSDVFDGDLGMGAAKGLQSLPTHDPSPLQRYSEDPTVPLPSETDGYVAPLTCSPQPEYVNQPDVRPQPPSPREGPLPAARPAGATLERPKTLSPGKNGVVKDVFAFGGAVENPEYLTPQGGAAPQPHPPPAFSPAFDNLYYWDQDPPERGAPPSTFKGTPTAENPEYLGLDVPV

[5] = biological target: Protein kinase C beta type (Homo sapiens) (UniProt P05771); experiment: Inhibition of PKCbeta1 (unknown origin) at 50 nM by Z'LYTE screening method relative to control
Sequence of Protein kinase C beta type (Homo sapiens) (P05771 2-671 limits assumed): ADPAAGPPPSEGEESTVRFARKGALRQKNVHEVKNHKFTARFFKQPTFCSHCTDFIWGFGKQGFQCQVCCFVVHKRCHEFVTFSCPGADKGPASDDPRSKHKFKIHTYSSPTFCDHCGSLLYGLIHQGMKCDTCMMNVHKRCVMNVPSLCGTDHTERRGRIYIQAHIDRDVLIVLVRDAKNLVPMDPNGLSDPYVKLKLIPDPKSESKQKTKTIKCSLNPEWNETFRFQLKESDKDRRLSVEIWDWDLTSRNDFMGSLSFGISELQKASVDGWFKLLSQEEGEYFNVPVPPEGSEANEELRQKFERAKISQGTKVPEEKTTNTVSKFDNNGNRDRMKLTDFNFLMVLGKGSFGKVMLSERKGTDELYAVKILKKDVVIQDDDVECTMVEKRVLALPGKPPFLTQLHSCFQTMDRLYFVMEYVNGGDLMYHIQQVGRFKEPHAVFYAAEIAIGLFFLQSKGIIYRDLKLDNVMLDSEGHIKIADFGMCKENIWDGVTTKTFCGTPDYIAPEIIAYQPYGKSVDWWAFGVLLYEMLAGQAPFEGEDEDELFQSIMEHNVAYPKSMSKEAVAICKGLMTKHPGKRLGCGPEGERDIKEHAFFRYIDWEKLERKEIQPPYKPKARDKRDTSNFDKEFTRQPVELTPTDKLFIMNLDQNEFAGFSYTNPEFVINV

MDA-MB-231 = experiment: Cytotoxicity against human MDA-MB-231/M cells assessed as reduction in cell viability incubated for 96 hrs by MTT assay; type: functional, cell-based; conditions: MDA-MB-231, 96 h
[6] = biological target: Dual specificity mitogen-activated protein kinase kinase 1 (Homo sapiens) (UniProt Q02750); experiment: Inhibition of MAP2K1 (unknown origin) at 50 nM by Z'LYTE screening method relative to control
Sequence of Dual specificity mitogen-activated protein kinase kinase 1 (Homo sapiens) (Q02750 whole entry): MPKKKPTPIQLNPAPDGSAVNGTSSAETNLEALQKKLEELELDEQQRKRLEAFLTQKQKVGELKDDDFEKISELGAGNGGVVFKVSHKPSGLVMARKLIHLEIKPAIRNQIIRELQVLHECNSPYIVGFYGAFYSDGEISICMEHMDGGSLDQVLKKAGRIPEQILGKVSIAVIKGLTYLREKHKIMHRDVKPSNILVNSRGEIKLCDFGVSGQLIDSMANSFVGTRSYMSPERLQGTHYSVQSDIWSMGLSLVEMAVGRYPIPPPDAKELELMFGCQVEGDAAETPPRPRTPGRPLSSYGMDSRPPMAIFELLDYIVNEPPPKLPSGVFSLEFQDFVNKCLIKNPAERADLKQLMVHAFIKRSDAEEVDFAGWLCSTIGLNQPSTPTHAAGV

[7] = biological target: Hepatocyte growth factor receptor (Homo sapiens) (UniProt P08581); experiment: Inhibition of cMet (unknown origin) at 50 nM by Z'LYTE screening method relative to control
[8] = biological target: Protein kinase C beta type (Homo sapiens) (UniProt P05771); experiment: Inhibition of PKCbeta2 (unknown origin) at 50 nM by Z'LYTE screening method relative to control
[9] = biological target: Serine/threonine-protein kinase PAK 1 (Homo sapiens) (UniProt Q13153); experiment: Inhibition of PAK1 (unknown origin) at 50 nM by Z'LYTE screening method relative to control
[10] = biological target: PI3-kinase p110-alpha/p85-alpha (Homo sapiens) (UniProt P27986+P42336); experiment: Inhibition of p110alpha/p85alpha (unknown origin) at 50 nM by Z'LYTE screening method relative to control; type: protein-complex assay
[11] = biological target: Protein kinase C eta type (Homo sapiens, UniProt P24723); experiment: Inhibition of PKCeta (unknown origin) at 50 nM by Z'LYTE screening method relative to control
[12] = biological target: Protein kinase C theta type (Homo sapiens, UniProt Q04759); experiment: Inhibition of PKCtheta (unknown origin) at 50 nM by Z'LYTE screening method relative to control
[13] = biological target: Mitogen-activated protein kinase 11 (Homo sapiens) (UniProt Q15759); experiment: Inhibition of MAPK11 (unknown origin) at 50 nM by Z'LYTE screening method relative to control
Sequence of Mitogen-activated protein kinase 11 (Homo sapiens) (Q15759 whole entry): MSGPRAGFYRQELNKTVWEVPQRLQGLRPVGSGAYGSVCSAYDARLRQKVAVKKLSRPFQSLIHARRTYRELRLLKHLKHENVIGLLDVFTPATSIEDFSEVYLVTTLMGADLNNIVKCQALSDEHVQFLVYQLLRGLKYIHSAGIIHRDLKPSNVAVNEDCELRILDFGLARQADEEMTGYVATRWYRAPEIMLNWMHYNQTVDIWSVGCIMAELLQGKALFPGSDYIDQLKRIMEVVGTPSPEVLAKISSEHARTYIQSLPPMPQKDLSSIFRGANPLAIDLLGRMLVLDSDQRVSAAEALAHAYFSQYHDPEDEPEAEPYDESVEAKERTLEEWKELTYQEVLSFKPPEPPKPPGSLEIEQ

[14] = biological target: Protein kinase C delta type (Homo sapiens) (UniProt Q05655); experiment: Inhibition of PKCdelta (unknown origin) at 50 nM by Z'LYTE screening method relative to control
[15] = biological target: Serine/threonine-protein kinase mTOR (Homo sapiens) (UniProt P42345); experiment: Inhibition of FRAP1 (unknown origin) at 50 nM by Z'LYTE screening method relative to control
[16] = biological target: RAC-alpha serine/threonine-protein kinase (Homo sapiens) (UniProt P31749); experiment: Inhibition of AKT1 (unknown origin) at 50 nM by Z'LYTE screening method relative to control
Sequence of RAC-alpha serine/threonine-protein kinase (Homo sapiens) (P31749 whole entry): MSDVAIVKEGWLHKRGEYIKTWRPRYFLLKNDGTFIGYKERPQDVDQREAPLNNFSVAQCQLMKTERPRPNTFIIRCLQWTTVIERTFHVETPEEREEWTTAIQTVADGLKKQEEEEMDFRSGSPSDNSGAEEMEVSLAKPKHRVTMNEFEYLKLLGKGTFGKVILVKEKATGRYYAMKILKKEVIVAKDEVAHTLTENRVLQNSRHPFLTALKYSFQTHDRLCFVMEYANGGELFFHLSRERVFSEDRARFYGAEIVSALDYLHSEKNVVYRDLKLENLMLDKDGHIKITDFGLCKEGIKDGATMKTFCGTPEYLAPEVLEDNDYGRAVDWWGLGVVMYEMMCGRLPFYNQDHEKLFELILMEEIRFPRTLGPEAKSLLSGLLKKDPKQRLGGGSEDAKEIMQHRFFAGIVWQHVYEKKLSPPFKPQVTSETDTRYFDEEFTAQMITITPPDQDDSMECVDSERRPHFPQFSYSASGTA

[17] = biological target: ALK tyrosine kinase receptor (Homo sapiens) (UniProt Q9UM73); experiment: Inhibition of ALK (unknown origin) at 50 nM by Z'LYTE screening method relative to control
[18] = biological target: Tyrosine-protein kinase SYK (Homo sapiens) (UniProt P43405); experiment: Inhibition of SYK (unknown origin) at 50 nM by Z'LYTE screening method relative to control
4T1 = experiment: Cytotoxicity against mouse 4T1 cells assessed as reduction in cell viability incubated for 96 hrs by MTT assay; type: functional, cell-based; conditions: 4T1, 96 h
[19] = biological target: Aurora kinase B (Homo sapiens) (UniProt Q96GD4); experiment: Inhibition of AURB (unknown origin) at 50 nM by Z'LYTE screening method relative to control
Sequence of Aurora kinase B (Homo sapiens) (Q96GD4 whole entry): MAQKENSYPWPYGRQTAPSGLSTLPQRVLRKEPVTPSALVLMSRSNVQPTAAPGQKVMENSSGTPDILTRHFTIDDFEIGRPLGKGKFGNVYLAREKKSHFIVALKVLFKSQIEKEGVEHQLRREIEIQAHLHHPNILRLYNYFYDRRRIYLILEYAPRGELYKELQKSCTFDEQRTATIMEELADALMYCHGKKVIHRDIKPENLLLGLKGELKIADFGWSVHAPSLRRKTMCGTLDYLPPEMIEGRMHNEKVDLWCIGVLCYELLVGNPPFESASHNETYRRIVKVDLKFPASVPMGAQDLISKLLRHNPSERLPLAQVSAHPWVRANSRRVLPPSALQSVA

[20] = biological target: Protein kinase C alpha type (Homo sapiens) (UniProt P17252); experiment: Inhibition of PKCalpha (unknown origin) at 50 nM by Z'LYTE screening method relative to control
[21] = biological target: Tyrosine-protein kinase Yes (Homo sapiens) (UniProt P07947); experiment: Inhibition of YES1 (unknown origin) at 50 nM by Z'LYTE screening method relative to control
[22] = biological target: Proto-oncogene tyrosine-protein kinase Src (Homo sapiens) (UniProt P12931); experiment: Inhibition of SRC (unknown origin) at 50 nM by Z'LYTE screening method relative to control
[23] = biological target: CDK1/Cyclin A (Homo sapiens) (UniProt P06493+P20248); experiment: Inhibition of CDK1/CyclinA (unknown origin) at 50 nM by Z'LYTE screening method relative to control; type: protein-complex assay
[24] = biological target: Fibroblast growth factor receptor 1 (Homo sapiens) (UniProt P11362); experiment: Inhibition of FGFR1 (unknown origin) at 50 nM by Z'LYTE screening method relative to control

O=c1c2ccccc2[se]n1-c1nc(Nc2ccccc2)c2nc[nH]c2n1
inhibition [1]: 0% | inhibition [2]: 4% | inhibition [3]: 1% | inhibition (Homo sapiens): 0% | inhibition [4]: 0% | inhibition [5]: 6% | pIC50 (MDA-MB-231): 4.49 | inhibition [6]: 0% | inhibition [7]: 0% | inhibition [8]: 28% | inhibition [9]: 0% | inhibition [10]: 0% | inhibition [11]: 0% | inhibition [12]: 12% | inhibition [13]: 2% | inhibition [14]: 0% | inhibition [15]: 0% | inhibition [16]: 2% | inhibition [17]: 1% | inhibition [18]: 0% | pIC50 (4T1): 4.82 | inhibition [19]: 1% | inhibition [20]: 18% | inhibition [21]: 8% | inhibition [22]: 1% | inhibition [23]: 2% | inhibition [24]: 0%

O=c1c2ccccc2[se]n1-c1nc(N[C@H]2CCOC2)c2nc[nH]c2n1
inhibition [1]: 0% | inhibition [2]: 7% | inhibition [3]: 2% | inhibition (Homo sapiens): 1% | inhibition [4]: 0% | inhibition [5]: 84% | pIC50 (MDA-MB-231): 5.64 | inhibition [6]: 2% | inhibition [7]: 0% | inhibition [8]: 7% | inhibition [9]: 0% | inhibition [10]: 0% | inhibition [11]: 3% | inhibition [12]: 85% | inhibition [13]: 3% | inhibition [14]: 0% | inhibition [15]: 1% | inhibition [16]: 1% | inhibition [17]: 1% | inhibition [18]: 2% | pIC50 (4T1): 5.74 | inhibition [19]: 0% | inhibition [20]: 91% | inhibition [21]: 6% | inhibition [22]: 3% | inhibition [23]: 1% | inhibition [24]: 0%

O=C1c2ccccc2CN1c1nc(NC2CCCCC2)c2nc[nH]c2n1
inhibition [1]: 4% | inhibition [2]: 10% | inhibition [3]: 2% | inhibition (Homo sapiens): 0% | inhibition [4]: 0% | inhibition [5]: 5% | pIC50 (MDA-MB-231): 4.44 | inhibition [6]: 4% | inhibition [7]: 0% | inhibition [8]: 5% | inhibition [9]: 0% | inhibition [10]: 0% | inhibition [11]: 0% | inhibition [12]: 0% | inhibition [13]: 1% | inhibition [14]: 0% | inhibition [15]: 0% | inhibition [16]: 2% | inhibition [17]: 1% | inhibition [18]: 3% | pIC50 (4T1): 4.61 | inhibition [19]: 4% | inhibition [20]: 14% | inhibition [21]: 5% | inhibition [22]: 5% | inhibition [23]: 2% | inhibition [24]: 0%
